# Results taken from ChEMBL document CHEMBL4706545, “Antiproliferative effect of mitochondria-targeting allobetulin 1,2,3-triazolium salt derivatives and their mechanism of inducing apoptosis of cancer cells” (Eur J Med Chem, 2020).
# Activity calls are given as the source filed them. The calls are words filed in the database; no cut-off is given here.
# How the values were obtained:
# SGC-7901 [1] = assay: Induction of mitochondrial membrane potential disruption in human SGC-7901 cells incubated for 48 hrs by JC-1 dye based flow cytometry analysis; settings: Mitochondria, dose 1-4 µM
# SGC-7901 [2] = assay: Induction of apoptosis in human SGC-7901 cells at 1 to 4 uM incubated for 48 hrs by AO/PI staining based fluorescence microscopic analysis; assay type: functional, cell-based; settings: dose 1-4 µM
# SGC-7901 [3] = assay: Induction of apoptosis in human SGC-7901 cells assessed as viable cells at 1 uM incubated for 48 hrs by annexin-V-FITC and PI staining based fluorescence microscopic analysis (reference value: 93.8 %); assay type: functional; settings: read-out: Activity
# SGC-7901 [4] = assay: Induction of apoptosis in human SGC-7901 cells assessed as necrotic cells at 2 uM incubated for 48 hrs by annexin-V-FITC and PI staining based fluorescence microscopic analysis (reference value: 1.03 %); assay type: functional
# SGC-7901 [5] = assay: Induction of apoptosis in human SGC-7901 cells assessed as viable cells at 4 uM incubated for 48 hrs by annexin-V-FITC and PI staining based fluorescence microscopic analysis (reference value: 93.8 %); assay type: functional; settings: read-out: Activity
# SGC-7901 [6] = assay: Induction of apoptosis in human SGC-7901 cells assessed as late apoptotic cells at 4 uM incubated for 48 hrs by annexin-V-FITC and PI staining based fluorescence microscopic analysis (reference value: 3.87 %); assay type: functional
# SGC-7901 [7] = assay: Induction of apoptosis in human SGC-7901 cells assessed as necrotic cells at 4 uM incubated for 48 hrs by annexin-V-FITC and PI staining based fluorescence microscopic analysis (reference value: 1.03 %); assay type: functional
# SGC-7901 [8] = assay: Induction of ROS-mediated apoptosis in human SGC-7901 cells assessed as viable cells at 2 uM incubated for 48 hrs by annexin V-PE and 7-AAD staining based flow cytometry analysis (reference value: 93.6 %); assay type: functional; settings: read-out: Activity
# SGC-7901 [9] = assay: Induction of ROS-mediated apoptosis in human SGC-7901 cells assessed as necrotic cells at 2 uM incubated for 48 hrs by annexin V-PE and 7-AAD staining based flow cytometry analysis (reference value: 0.733 %); assay type: functional
# SGC-7901 [10] = assay: Induction of ROS-mediated apoptosis in human SGC-7901 cells assessed as early apoptotic cells at 1 uM incubated for 48 hrs in presence of NAC by annexin V-PE and 7-AAD staining based flow cytometry analysis (reference value: 1.15 %); assay type: functional
# SGC-7901 [11] = assay: Induction of ROS-mediated apoptosis in human SGC-7901 cells assessed as necrotic cells at 1 uM incubated for 48 hrs in presence of NAC by annexin V-PE and 7-AAD staining based flow cytometry analysis (reference value: 0.623 %); assay type: functional
# SGC-7901 [12] = assay: Induction of ROS-mediated apoptosis in human SGC-7901 cells assessed as early apoptotic cells at 2 uM incubated for 48 hrs in presence of NAC by annexin V-PE and 7-AAD staining based flow cytometry analysis (reference value: 1.15 %); assay type: functional
# SGC-7901 [13] = assay: Induction of ROS-mediated apoptosis in human SGC-7901 cells assessed as necrotic cells at 2 uM incubated for 48 hrs in presence of NAC by annexin V-PE and 7-AAD staining based flow cytometry analysis (reference value: 0.623 %); assay type: functional
# SGC-7901 [14] = assay: Induction of cell cycle arrest in human SGC-7901 cells assessed as accumulation in S phase at 2 uM incubated for 48 hrs by PI staining based flow cytometry analysis (reference value: 31.13 %); assay type: functional
# SGC-7901 [15] = assay: Induction of cell cycle arrest in human SGC-7901 cells assessed as accumulation in G0/G1 phase at 4 uM incubated for 48 hrs by PI staining based flow cytometry analysis (reference value: 57.39 %); assay type: functional
# SGC-7901 [16] = assay: Induction of apoptosis in human SGC-7901 cells assessed as decrease in caspase-3 incubated for 48 hrs by Western blot analysis; assay type: functional, cell-based; settings: dose 1-4 µM
# SGC-7901 [17] = assay: Induction of apoptosis in human SGC-7901 cells assessed as decrease in caspase-8 incubated for 48 hrs by Western blot analysis; assay type: functional, cell-based; settings: dose 1-4 µM
# SGC-7901 [18] = assay: Induction of apoptosis in human SGC-7901 cells assessed as decrease in caspase-9 incubated for 48 hrs by Western blot analysis; assay type: functional, cell-based; settings: dose 1-4 µM
# ECa-109 cell line [19] = assay: Induction of apoptosis in human ECa-109 cells assessed as decrease in PARP incubated for 48 hrs by Western blot analysis; assay type: functional, cell-based; settings: dose 1-4 µM
# [20] = Selectivity index, ratio of IC50 for cytotoxicity against human HL7702 cells to IC50 for cytotoxicity against human ECa-109 cells
# ECa-109 cell line [21] = assay: Induction of apoptosis in human ECa-109 cells assessed as early apoptotic cells at 1 uM incubated for 48 hrs by annexin-V-FITC and PI staining based fluorescence microscopic analysis (reference value: 0.971 %); assay type: functional
# ECa-109 cell line [22] = assay: Induction of apoptosis in human ECa-109 cells assessed as late apoptotic cells at 1 uM incubated for 48 hrs by annexin-V-FITC and PI staining based fluorescence microscopic analysis (reference value: 2.01 %); assay type: functional
# ECa-109 cell line [23] = assay: Induction of apoptosis in human ECa-109 cells assessed as necrotic cells at 1 uM incubated for 48 hrs by annexin-V-FITC and PI staining based fluorescence microscopic analysis (reference value: 1.19 %); assay type: functional
# ECa-109 cell line [24] = assay: Induction of apoptosis in human ECa-109 cells assessed as late apoptotic cells at 2 uM incubated for 48 hrs by annexin-V-FITC and PI staining based fluorescence microscopic analysis (reference value: 2.01 %); assay type: functional
# ECa-109 cell line [25] = assay: Induction of apoptosis in human ECa-109 cells assessed as late apoptotic cells at 4 uM incubated for 48 hrs by annexin-V-FITC and PI staining based fluorescence microscopic analysis (reference value: 2.01 %); assay type: functional
# ECa-109 cell line [26] = assay: Induction of apoptosis in human ECa-109 cells assessed as late apoptotic cells incubated for 48 hrs by annexin-V-FITC and PI staining based fluorescence microscopic analysis; assay type: functional, cell-based; settings: dose 1-4 µM
# ECa-109 cell line [27] = assay: Induction of ROS generation in human […] cells incubated for 48 hrs by DCFH-DA staining based fluorescence microscopic analysis; assay type: functional; settings: dose 1-4 µM
# ECa-109 cell line [28] = assay: Induction of ROS-mediated apoptosis in human ECa-109 cells assessed as late apoptotic cells at 4 uM incubated for 48 hrs by annexin V-PE and 7-AAD staining based flow cytometry analysis (reference value: 3.89 %); assay type: functional
# ECa-109 cell line [29] = assay: Induction of ROS-mediated apoptosis in human ECa-109 cells assessed as necrotic cells at 4 uM incubated for 48 hrs by annexin V-PE and 7-AAD staining based flow cytometry analysis (reference value: 0.729 %); assay type: functional
# ECa-109 cell line [30] = assay: Induction of ROS-mediated apoptosis in human ECa-109 cells assessed as necrotic cells at 4 uM incubated for 48 hrs in presence of NAC by annexin V-PE and 7-AAD staining based flow cytometry analysis (reference value: 1.09 %); assay type: functional
# ECa-109 cell line [31] = assay: Induction of cell cycle arrest in human ECa-109 cells assessed as accumulation in S phase at 1 uM incubated for 48 hrs by PI staining based flow cytometry analysis (reference value: 39.33 %); assay type: functional
# ECa-109 cell line [32] = assay: Induction of cell cycle arrest in human ECa-109 cells assessed as accumulation in S phase at 4 uM incubated for 48 hrs by PI staining based flow cytometry analysis (reference value: 39.33 %); assay type: functional
# ECa-109 cell line [33] = assay: Induction of cell cycle arrest in human ECa-109 cells assessed as accumulation in G2/M phase at 4 uM incubated for 48 hrs by PI staining based flow cytometry analysis (reference value: 8.39 %); assay type: functional
compound,measurement,setting,value
C[n+]1nn(Cc2c(F)cccc2Cl)c2c1C[C@]1(C)[C@H]3CC[C@@H]4[C@H]5[C@H]6OC[C@@]5(CCC6(C)C)CC[C@@]4(C)[C@]3(C)CC[C@H]1C2(C)C.[I-],Activity,SGC-7901 [1],Dose-dependent effect
same,Activity,SGC-7901 [2],Active
same,viability at 1 µM,SGC-7901 [3],83%
same,Activity,SGC-7901 [4],1.56%
same,viability at 4 µM,SGC-7901 [5],0.494%
same,Activity,SGC-7901 [6],97.3%
same,Activity,SGC-7901 [7],0.158%
same,viability at 2 µM,SGC-7901 [8],60.2%
same,Activity,SGC-7901 [9],0.956%
same,Activity,SGC-7901 [10],6.13%
same,Activity,SGC-7901 [11],1.21%
same,Activity,SGC-7901 [12],19.5%
same,Activity,SGC-7901 [13],0.637%
same,Activity,SGC-7901 [14],15.76%
same,Activity,SGC-7901 [15],59.38%
same,Activity,SGC-7901 [16],Dose-dependent effect
same,Activity,SGC-7901 [17],Dose-dependent effect
same,Activity,SGC-7901 [18],Dose-dependent effect
same,Activity,ECa-109 cell line [19],Dose-dependent effect
COc1ccccc1Cn1n[n+](C)c2c1C(C)(C)[C@@H]1CC[C@]3(C)[C@H](CC[C@@H]4[C@H]5[C@H]6OC[C@@]5(CCC6(C)C)CC[C@]43C)[C@@]1(C)C2.[I-],Ratio IC50,[20],1.53
same,Activity,ECa-109 cell line [21],17.4%
same,Activity,ECa-109 cell line [22],12.9%
same,Activity,ECa-109 cell line [23],0.624%
same,Activity,ECa-109 cell line [24],23%
same,Activity,ECa-109 cell line [25],92.2%
same,Activity,ECa-109 cell line [26],Dose-dependent effect
same,Activity,ECa-109 cell line [27],Dose-dependent effect
same,Activity,ECa-109 cell line [28],95%
same,Activity,ECa-109 cell line [29],2.19%
same,Activity,ECa-109 cell line [30],3.83%
same,Activity,ECa-109 cell line [31],35.03%
same,Activity,ECa-109 cell line [32],43.8%
same,Activity,ECa-109 cell line [33],22.73%
